Laboratory results taken from publication PMC7280144 (Acta Pharmaceutica Sinica. B, 2020).

Biological target: T1, ATP-binding cassette subfamily G member 2 (ABCG2) (Homo sapiens, UniProt Q9UNQ0)
T1 sequence (Q9UNQ0 1-655): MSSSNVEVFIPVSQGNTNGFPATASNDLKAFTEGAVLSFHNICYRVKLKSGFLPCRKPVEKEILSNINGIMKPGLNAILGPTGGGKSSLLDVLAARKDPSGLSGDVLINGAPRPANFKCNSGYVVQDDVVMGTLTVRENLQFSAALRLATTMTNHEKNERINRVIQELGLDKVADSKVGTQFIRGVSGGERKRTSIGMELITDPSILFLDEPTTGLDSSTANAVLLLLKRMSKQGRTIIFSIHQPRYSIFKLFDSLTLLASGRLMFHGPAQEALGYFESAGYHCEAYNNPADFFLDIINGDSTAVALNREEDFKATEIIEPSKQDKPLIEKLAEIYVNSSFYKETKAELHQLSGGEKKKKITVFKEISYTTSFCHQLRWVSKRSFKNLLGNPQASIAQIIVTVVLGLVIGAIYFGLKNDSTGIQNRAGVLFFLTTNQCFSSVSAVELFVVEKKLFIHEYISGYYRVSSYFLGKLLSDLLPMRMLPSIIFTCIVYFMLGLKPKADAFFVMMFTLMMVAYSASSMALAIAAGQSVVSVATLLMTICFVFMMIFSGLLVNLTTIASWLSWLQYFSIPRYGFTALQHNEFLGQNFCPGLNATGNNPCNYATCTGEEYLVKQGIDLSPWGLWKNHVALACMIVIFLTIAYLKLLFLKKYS
Experiment: competition of […]-IAAP photoaffinity labeling in crude membranes

- competition of [125I]-IAAP photoaffinity labeling in crude membranes; also vanad: ~ 5 μmol/L
SMILES: C=CC(=O)Nc1cccc(Nc2nc(Nc3ccc(N4CCN(C(C)=O)CC4)cc3OC)ncc2C(F)(F)F)c1 [rociletinib]
